Experimental data reported in the NIST ThermoML archive (doi:10.1021/je8004408).
± gives the expanded uncertainty stated by the source.

Tests used:
[1] = DTA
[2] = Molar enthalpy of transition or fusion; details: DSC
[3] = molar enthalpy of vaporization or sublimation; details: 298.15 K, Drop Microcalorimetry

Normal melting temperature ([1]; Crystal) [°C] | Molar enthalpy of transition or fusion ([2]; Crystal) [kcal/mol] | molar enthalpy ([3]; Crystal) [kcal/mol] | Normal melting temperature ([1]; Crystal 1) [°C] | Triple point temperature ([1]; Crystal 2) [K] | Molar enthalpy of transition or fusion ([2]; Crystal 1) [kcal/mol] | Molar enthalpy of transition or fusion ([2]; Crystal 2) [kcal/mol] | molar enthalpy ([3]; Crystal 2) [kcal/mol] | Compound
206.91 ± 0.39 | 8.05 ± 0.198 | 28.3 ± 0.717 | – | – | – | – | – | O=C1CCCc2c(O)cccc21 [5-hydroxy-1-tetralone]
– | – | – | 152.76 ± 0.45 | 387.46 ± 0.65 | 4.54 ± 0.17 | 3.11 ± 0.598 | 28.1 ± 0.669 | O=C1CCCc2cc(O)ccc21 [6-hydroxy-1-tetralone]
